Legend:
[1] = test system: αxβ3γ2 (α = 1-6) BzR/GABA(A) subtypes; assay: Binding across the BzR/GABA(A) subtypes (subtype selectivity in words); set-up: species or system human and rat
Experimental: The binding affinity of XLi093 (8) in vitro was determined on α1-6β3γ2 LTK cells and is illustrated in the Scheme as shown in FIG. 2
The affinity of all ligands at the 6 major recombinant GABAA/BzR subtypes was measured by competition for [^3H]Ro15-1788 binding to HEK-T cells expressing both human and rat GABAA/Bz receptors of composition α1β2γ2 (α1), α2β2γ2 (α2), α3β2γ2 (α3), α4β2γ2 (α4), α5β2γ2 (α5) and α6β2γ2 (α6). It is well known that the β2 and β3 subunits can be interchanged with no effect on Bz ligand affinity or efficacy. […] These studies are similar to those performed in the laboratory of Bryan Roth who has already expressed the receptors employing the work of Kucken et. al. and Gray et. al.
In brief, for membrane preparations, the cells were scraped on to the ice and diluted into 5 mL of phosphate buffered saline (pH=7.40) and cells pelleted by centrifugation for 5 min. at 4° C. The pellet was resuspended in 1 mL of 50 mM Tris-acetate buffer (pH 7.4) and centrifuged at 18,000 g for 20 min. […] The membranes were harvested in polyethyleneimine-pretreated Whatman GF/C filters and after drying and addition of scintillation cocktail, counted in a scintillation counter. […]

Tail flick assay = settings: in vivo

Row | SMILES | affinity at other BzR/GABA(A) subtypes than α5 (in words) [1] | melting point | analgesic effect in tail flick assay (in words) (Tail flick assay)
1 | CCOC(=O)c1ncn2c1CN=C(c1ccccc1)c1cc(-c3ccccc3)ccc1-2 [DM-I-81, Ethyl 8-phenyl-6-phenyl-4H-benzo[f]imidazo[1,5-a][1,4]diazepine-3-carboxylate] | binds only to α5β3γ2 subtypes | 200 to 201 °C | 
2 | CCc1ccc2c(c1)C(=O)N(C)Cc1c(C(=O)OCCCOC(=O)c3ncn4c3CN(C)C(=O)c3cc(CC)ccc3-4)ncn1-2 [XLi356, 1,3-Bis(8-ethyl-5,6-dihydro-5-methyl-6-oxo-4H-imidazo[1,5a][1,4]benzodiazepine-3-carboxy)propyl diester] |  |  | No analgesic effect

From US7595395B2, “Gabaergic agents to treat memory deficits” (priority 2005, dated 2009)
